This is an account of results in patent publication US20080194673A1, “Environment-Friendly Pollution-Proof Agent” (priority 2004, published 2008).

One data set has as its system spores of Ulva pertusa. The data set is described as follows: inhibitory effect test against the mobility of the spores of Ulva pertusa (Example 2 fractions). Format: cell-based. On the procedure:
The effects of the fractions I-VI on the inhibition of attachment of fouling organisms were tested on Ulva pertusa, one of typical fouling algae. Ulva pertusa was collected in Kyongpodae, Kangnung-city, Kangwon-Do, Korea. The collected seaweed was transported to a laboratory in which only Ulva pertusa was screened. In order to remove fouling organisms, the screened algae were treated three times with supersonic waves for 1 minute for each time, and then washed clean with sterilized seawater. The washed algae were simply sterilized by immersion in a mixed solution of 1% betadine and 2% trition X-100 for 1 minute, followed by semi-drying. The semi-dried Ulva pertusa was added to sterilized seawater and placed in a 80 μmol m^−2s^−, 20° C. incubator to induce the release of spores.
10 μl of dimethyl sulfoxide (DMSO) was placed in a prepared tube, to which the seawater having spores released therein was then added. […] Before inoculation with each fraction at each dilution concentration, the movement of spores in the seawater was examined and the result was used as a comparison with a control group.

The next data set has as its system mice. Nature of the data set: safety test, single administration to mice, observed for 7 days. Format: in vivo, mouse. The conditions noted are these: 10 mg/kg, 10 mice per group. On the procedure:
Each of hexadecane, octadecane, eicosane, 1-eicosanol, 1-pentadecanol, dibutyl phthalate, dioctyl phthalate, diisononyl phthalate, dicyclohexyl phthalate, and 6-formyl-3,4-dehydro-2,8-dimethyl-2-(3′,6′-dienyl-8′-hydroxy-4′-methylnonane)-2H-1-benzopyrane is dissolved in dimethylsulfoxide (DMSO) and diluted with water.

A further data set can be described thus: in vivo. The procedure:
Methyl stearate is an opaque white-colored crystal and has the following physical properties: a melting point of 40-42° C., and a boiling point of 181-182° C.

Another data set has as its system Staphylococcus aureus. The data set is described as follows: minimum inhibitory concentration (MIC) by two-fold serial dilution in nutrient broth. The conditions noted are these: 30° C., 48 hours. Format: cell-based. From the text: (§1) A liquid medium obtained by diluting PAGS by two-fold serial dilution was placed on a 96-multiwell plate and inoculated with 10^4 cfu/ml of microorganisms. […] The liquid medium used in the test was a nutrient broth (Difco).

The next data set has as its system Aspergillus niger. Described as above. The conditions noted are these: 30° C., 48 hours. Format: cell-based.
Description: as §1

The subject of the next data set is Enteromorpha spores. Nature of the data set: inhibitory activity test against the mobility of Enteromorpha spores (Sargassum confusum fractions, Tables 5-8). Format: cell-based.
The nature of data set [1]: oral toxicity of methyl palmitate in mice. The conditions noted are these: mouse, in vivo, administered orally to mice.
Another data set concerns human body. The conditions noted are these: in vivo.
Data set [2] in a line: fish toxicity against water. The conditions noted are these: Blugil fish (a kind of trout), in vivo, other: exposure in water. On the procedure:
The physical properties of methyl palmitate are as follows: a melting point of 32-34° C., a boiling point of 163-164° C., and a density of 0.852. […] Blugil fish which is a kind of trout was tested for toxicity against water, the result was as follows: LC50=1000 ml/l.

The next data set concerns eyes of rabbits. The conditions noted are these: rabbit, in vivo.
The mark [3] stands for this setting: ratio 1:0 (not explained; test of PAGS).
[4] abbreviates: ratio 3:1 (not explained; test of PAGS).

Converted amounts (≈) assume the structure as drawn. Where only a bound is given, the exact number is not on record here.

With `CCCCCCCCCCCCCCCO` [D], the Mobility inhibitory activity entry in the data set with spores of Ulva pertusa (125 μg/ml), in the data set with spores of Ulva pertusa (250 μg/ml), with spores of Ulva pertusa (500 μg/ml), in the data set on spores of Ulva pertusa (1,000 μg/ml), with spores of Ulva pertusa (2,000 μg/ml) and with spores of Ulva pertusa (4,000 μg/ml) was “++++ (more than 95% inhibition of the mobility of spores)” throughout.

On to `CCCCCCCCCCCCCCCCCCCC` [B], for which the Mobility inhibitory activity result in the data set with spores of Ulva pertusa (125 μg/ml), with spores of Ulva pertusa (250 μg/ml), with spores of Ulva pertusa (500 μg/ml), with spores of Ulva pertusa (1,000 μg/ml), in the data set on spores of Ulva pertusa (2,000 μg/ml) and in the data set on spores of Ulva pertusa (4,000 μg/ml) was “++++ (more than 95% inhibition of the mobility of spores)” in each case.

On to `O=C(OC1CCCCC1)c1ccccc1C(=O)OC1CCCCC1` [H], for which the Mobility inhibitory activity entry in the data set on spores of Ulva pertusa (125 μg/ml), in the data set with spores of Ulva pertusa (250 μg/ml), in the data set with spores of Ulva pertusa (500 μg/ml), in the data set with spores of Ulva pertusa (1,000 μg/ml), in the data set with spores of Ulva pertusa (2,000 μg/ml) and in the data set on spores of Ulva pertusa (4,000 μg/ml) was “++++ (more than 95% inhibition of the mobility of spores)” each time.

Take `CCCCOC(=O)c1ccccc1C(=O)OCCCC` [E]: the Mobility inhibitory activity entry in the data set with spores of Ulva pertusa (125 μg/ml), with spores of Ulva pertusa (250 μg/ml), with spores of Ulva pertusa (500 μg/ml), with spores of Ulva pertusa (1,000 μg/ml), in the data set on spores of Ulva pertusa (2,000 μg/ml) and in the data set with spores of Ulva pertusa (4,000 μg/ml) was “++++ (more than 95% inhibition of the mobility of spores)” throughout.

As to `CCCCCCCCCCCCCCCCCCCCO` [Example 1-eicosanol, 1-eicosanol], in the data set with mice, the “death of the mice” value was “no death”.

`CCCCCCCCCCCCCCCCCCCCO` [C]: the Mobility inhibitory activity result in the data set on spores of Ulva pertusa (125 μg/ml), in the data set with spores of Ulva pertusa (250 μg/ml), in the data set on spores of Ulva pertusa (500 μg/ml), with spores of Ulva pertusa (1,000 μg/ml), with spores of Ulva pertusa (2,000 μg/ml) and with spores of Ulva pertusa (4,000 μg/ml) was “++++ (more than 95% inhibition of the mobility of spores)” in each case.

With `CCCCCCCCCCCCCCCC` [hexadecane], the “death of the mice” value in the data set on mice is recorded as “no death”.

The term LD50 denotes the dose expected to kill half of the subjects tested. The low end stands for greater toxicity, the high end for lower toxicity. In the data set “in vivo” (in vivo, species and route not given), `CCCCCCCCCCCCCCCCCC(=O)OC` [methyl stearate] came in with an LD50 of more than 17200 mg/kg. For the same compound, in “in vivo” (suction, intake, epidermal absorption), the stimulus entry is listed as “gives no stimulus”.

As for `O=C(OC1CCCCC1)c1ccccc1C(=O)OC1CCCCC1` [dicyclohexyl phthalate], the “death of the mice” value in the data set with mice was “no death”.

For `CCCCCCCCOC(=O)c1ccccc1C(=O)OCCCCCCCC` [dioctyl phthalate], in the data set with mice, the “death of the mice” value is listed as “no death”.

On to `CCCCOC(=O)c1ccccc1C(=O)OCCCC` [dibutyl phthalate], for which, in the data set with mice, the “death of the mice” value is listed as “no death”.

Regarding `CCCCCCCCCCCCCCCCCCCC` (single isomer, unassigned) [eicosane], the “death of the mice” value with mice was “no death”.

“6-formyl-3,4-dehydro-2,8-dimethyl-2-(3′,6′-dienyl-8′-hydroxy-4′-methylnonane)-2H-1-benzopyrane”: the “death of the mice” value in the data set on mice is reported as “no death”. Moreover, in the data set on Staphylococcus aureus (setting [3]), the “MIC Staphylococcus aureus 1:0” value was 4. In addition, the “MIC Staphylococcus aureus 3:1” value in the data set on Staphylococcus aureus (setting [4]) turned out to be 1. Besides, the “MIC Aspergillus niger 1:0” value in the data set with Aspergillus niger (setting [3]) stood at 10. The “MIC Aspergillus niger 3:1” value in the data set with Aspergillus niger (setting [4]) is on record as 2. Moreover, the “Activity (inhibition of the mobility of spores)” value with Enteromorpha spores (125 μg/ml), with Enteromorpha spores (250 μg/ml), in the data set with Enteromorpha spores (500 μg/ml), in the data set with Enteromorpha spores (1,000 μg/ml), in the data set with Enteromorpha spores (2,000 μg/ml) and in the data set on Enteromorpha spores (4,000 μg/ml) was “++++ (more than 95% inhibition of the mobility of spores)” each time.

`CCCCCCCCOC(=O)c1ccccc1C(=O)OCCCCCCCC` [F]: the Mobility inhibitory activity entry in the data set with spores of Ulva pertusa (125 μg/ml), in the data set on spores of Ulva pertusa (250 μg/ml), in the data set with spores of Ulva pertusa (500 μg/ml), in the data set on spores of Ulva pertusa (1,000 μg/ml), in the data set on spores of Ulva pertusa (2,000 μg/ml) and in the data set on spores of Ulva pertusa (4,000 μg/ml) was “++++ (more than 95% inhibition of the mobility of spores)” in each case.

A word on the LC50: it is the concentration that kills 50% of the test population. A higher LC50 goes with a less lethal substance. For the compound `CCCCCCCCCCCCCCCC(=O)OC` [methyl palmitate], in [1], the LD50 is more than 20000 mg/kg. Moreover, the stimulus to skin entry with human body is “only a very mild stimulus remained”. Also, the LC50 in data set [2] came to 1000 µg/mL (≈ 3.7 mM). The stimulus to eyes result in the data set on eyes of rabbits is on record as “only a transient stimulus phenomenon occurred”.

Regarding `CC(C)CCCCCCOC(=O)c1ccccc1C(=O)OCCCCCCC(C)C` [diisononyl phthalate], in the data set with mice, the “death of the mice” value is reported as “no death”.

Take `CCCCCCCCCCCCCCCCCC` [octadecane]: in the data set on mice, the “death of the mice” value is listed as “no death”.

As for `CC(C)CCCCCCOC(=O)c1ccccc1C(=O)OCCCCCCC(C)C` [G], the Mobility inhibitory activity result in the data set with spores of Ulva pertusa (125 μg/ml), in the data set with spores of Ulva pertusa (250 μg/ml), in the data set with spores of Ulva pertusa (500 μg/ml), in the data set on spores of Ulva pertusa (1,000 μg/ml), in the data set on spores of Ulva pertusa (2,000 μg/ml) and with spores of Ulva pertusa (4,000 μg/ml) was “++++ (more than 95% inhibition of the mobility of spores)” in each case.

In the case of `CCCCCCCCCCCCCCCO` [1-pentadecanol], in the data set with mice, the “death of the mice” value is listed as “no death”.
